Measurements taken from patent US10195156B2, “Compounds and compositions for intracellular delivery of agents” (ModernaTX, Inc., priority 2015, dated 2019).
Where two headings read alike, the source gives them in different places.

What was measured:
[1] = Particle size and polydispersity index of nanoparticle compositions (Zetasizer Nano ZS); format: physicochemical
In short: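 Measured in 1×PBS by Zetasizer Nano ZS.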

[2] = Encapsulation efficiency of RNA (QUANT-IT RIBOGREEN RNA assay); format: physicochemical
In short: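 RiboGreen fluorescence (ex ~480, em ~520 nm) measured after 15 min at 37 °C on samples at ~5 μg/mL in TE, pH 7.5, ± 2% Triton X-100 solution. After blank subtraction, free RNA is given as intact-sample signal divided by disrupted-sample signal.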

[3] = pKa of nanoparticle compositions; format: physicochemical
hEPO mRNA expression [4] = assay: Expression of hEPO in rats after intravenous administration; format: in vivo; details: for hEPO expression in rats (in words): FIG. 8, i.v., 2 mpk (Graph A)
Experimental: PBS (phosphate buffered saline) is used as control.
Formulations were prepared according to Table 5 and included mRNA encoding hEPO.
[…] After the 48 hour time point, livers and spleens were harvested and frozen.

LDLr−/− mice = assay: Expression in LDLr−/− mice (LDLr dependence); format: in vivo; details: FIG. 9, FIG. 10
LDL-c = assay: LDL levels in LDLr−/− mice after mRNA encoding the LDL receptor; format: in vivo, LDLR knockout mice; details: for response vs control in vivo at 0.5 mg/kg: Mus musculus, Table 7b, LDLr−/− mice, 0.5 mpk, LDLr, read-out: LDL levels lipid/untreated LDLr−/− mice 0.5 mpk, LDLr
[5] = Lipid levels in liver and spleen 48 hours after administration; format: in vivo, rats; details: for concentration at 48 h: Sprague-Dawley, rat, intravenous
Experimental: Formulations were administered intravenously to rats (n=3 or 6) at a dosage of 0.2 mg/kg or 0.5 mg/kg (mpk) and hEPO levels measured at 3, 6, and 24 hour time points. After the 48 hour time point, livers and spleens were harvested and frozen.
The amount of lipid in the liver and spleen 48 hours after administration of a nanoparticle composition was also measured. […] In contrast, approximately 60% of doses including MC3 or Compound 22 remained in the liver after 48 hours. Less than 3% of the dose remained in the spleen for each composition tested.

hEPO mRNA expression [6] = assay: hEPO levels in non-human primates; format: in vivo; details: FIG. 10, up to ~50 h
Experimental: FIG. 10 is a graph showing hEPO levels in non-human primates up to ˜50 h after administration of a nanoparticle composition containing Compound 4, compared to a composition containing MC3.
The tolerability and efficacy of nanoparticle compositions to non-human primates is evaluated in Cynomolgus monkeys. Monkeys are administered an optimized nanoparticle composition including an mRNA encoding hEPO once weekly for four weeks. The levels of hEPO protein, mRNA, and cytokine profiles are measured using ELISA-based techniques before and 2, 6, 12, 24, 48, 72, and 120 hours after each administration.

[7] = test system: GFP expression in liver cells; assay: Mouse liver immunohistochemistry (IHC) with GFP mRNA; format: in vivo; details: FIG. 11, i.v., 0.5 mpk, 6 h (MC3, CD-1) or 8 h (Compound 4, LDLR knockout)
Experimental: FIG. 11 is a pair of images comparing the results of a mouse liver immunohistochemistry (IHC) using mRNA expressing green fluorescent protein (GFP) after administration of nanoparticle compositions containing Compound 4 and MC3.
FIG. 16 is a graph showing GFP levels in the livers of LDLR knockout mice at 30 min to 24 h after intravenous administration of an eGFP RNA in a lipid composition containing Compound 4. The liver GFP levels were determined via IHC. The square markers represent the number of GFP positive cells following administration of a dose of 0.1 mpk of the composition. The circular markers represent the number of GFP positive cells following administration of a dose of 0.5 mpk of the composition.

Luc expression = assay: ApoE dependence of luciferase expression (ApoE knockout vs. wild-type mice); format: in vivo; details: 0.5 mpk, 6 h
Description: FIG. 17 is a pair of graphs showing the ApoE dependence of luciferase (“Luc”) expression following administration of a composition containing Luc mRNA and Compound 4 to mice at a dose 0.5 mpk. The expression following administration of a composition containing Luc mRNA and MC3 is presented for comparison. […] The % change in Luc expression in livers of ApoE knockout vs. wild-type mice (i.e., (WT mean expression-KO mean expression)/WT mean expression]*100%) was 91.9% for Compound 4 and 97.5% for MC3. […] The % change in expression in spleens of ApoE knockout vs. wild-type mice was 4.34% for Compound 4 and 72.2% for MC3. Numbers 1-4 refer to the following: 1: Composition containing Compound 4, administered to ApoE knockout mice; 2: Composition containing Compound 4, administered to wild-type mice; 3: Composition containing MC3, administered to ApoE knockout mice; 4: Composition containing MC3, administered to wild-type mice.

[8] = test system: luciferase (Luc) mRNA expression; assay: Expression of Luc induced by sample formulations, whole-body bioluminescence after intravenous administration; format: in vivo; details: for Total Flux 3 hours / Total Flux 6 hours / Total Flux 24 hours: Table 2
In short: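 Read-out is whole-body bioluminescence at 3, 6 and 24 h after a single intravenous dose of 0.5 mg/kg Luc mRNA in nanoparticle formulations. Groups of n=6 mice; PBS and standard MC3 formulation as references.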

[9] = test system: modified luciferase expression; assay: Expression of Luc in different organs (liver, lung, spleen, femur) 6 hours after intravenous administration; format: in vivo; details: Table 3, mice, i.v., 0.5 mpk
Experimental: The efficacy of the nanoparticle compositions presented in Tables 1, 1a, 17-1, 19-1, 20-1 and 21-1 was further evaluated by measuring the expression of modified luciferase in the liver, lung, spleen, and femur upon administration of a given composition. Formulations were administered intravenously to mice (n=3) at a dosage of 0.5 mpk and bioluminescence measured after 6 hours. The standard MC3 formulation and a PBS control were also tested.

IL-6 = assay: Cytokine production induced by sample formulations: IL-6; format: in vivo; details: Table 4; mice, i.v., 0.5 mpk, 6 hours; in pg/mL (unit assumed)
In short: (§1)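 Cytokine levels were quantified at 6 hours in mice given the nanoparticle compositions i.v. at 0.5 mpk. MC3 standard formulation and PBS served as comparators.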

IP-10 = assay: Cytokine production induced by sample formulations: IP-10; format: in vivo; details: Table 4; mice, i.v., 0.5 mpk, 6 hours; in pg/mL (unit assumed)
In short: as §1

[10] = Tolerability / toxicity in rats (hEPO study); format: in vivo; details: FIG. 8, i.v., 2 mg/kg dose
[11] = Concentration of RNA in nanoparticle composition (ultraviolet-visible spectroscopy); format: physicochemical; details: Table 5, hEPO mRNA
Experimental: Ultraviolet-visible spectroscopy can be used to determine the concentration of a therapeutic and/or prophylactic agent (e.g., RNA) in nanoparticle compositions. 100 μL of the diluted formulation in 1×PBS is added to 900 μL of a 4:1 (v/v) mixture of methanol and chloroform. After mixing, the absorbance spectrum of the solution is recorded, for example, between 230 nm and 330 nm on a DU 800 spectrophotometer (Beckman Coulter, Beckman Coulter, Inc., Brea, Calif.). The concentration of therapeutic and/or prophylactic agent in the nanoparticle composition can be calculated based on the extinction coefficient of the therapeutic and/or prophylactic agent used in the composition and on the difference between the absorbance at a wavelength of, for example, 260 nm and the baseline value at a wavelength of, for example, 330 nm.

[12] = Table 1, rows without footnote mark
[13] = Table 1, rows without footnote mark (lipid:DOPE:cholesterol:PEG-DMG 40:20:38.5:1.5, Luc mRNA; MC3 standard formulation)
[14] = Table 5, hEPO mRNA, 40:20:38.5:1.5 Lipid:DOPE:Chol:PEG-DMG
[15] = Table 5, hEPO mRNA, 50:10:38.5:1.5 Lipid:DSPC:Chol:PEG-DMG

Row | SMILES | PDI [1, 12] | Size (nm) [1, 13] [nm] | EE (%) [2, 12] [%] | pKa [3, 12] | LDLr dependence of the lipid (in words) (LDLr−/− mice) | response vs control in vivo at 0.5 mg/kg (LDL-c) [%] | Total Flux 3 hours ([8]; mice, i.v., 0.5 mg/kg, 3 hours) | Total Flux 6 hours ([8]; mice, i.v., 0.5 mg/kg) | Total Flux 24 hours ([8]; mice, i.v., 0.5 mg/kg) | Total Flux Femur [9] | Total Flux Liver [9] | Total Flux Lung [9] | Total Flux Spleen [9] | IL-6 (IL-6) | IP-10 (IP-10) | hEPO expression in rats (in words) (hEPO mRNA expression [4]) | tolerability / toxicity in rats (in words) [10] | further results
1 | CCCCCCCCCN(CCCCCCCCC)CCN(CCCCCCCCC)CC(=O)N1CCN(C(=O)CN(CCCCCCCCC)CCCCCCCCC)CC1 [Compound 4, 2-(Dinonylamino)-1-(4-(N-(2-(dinonylamino)ethyl)-N-nonylglycyl)piperazin-1-yl)ethan-1-one] | 0.120 | 89.7 | 96.78 | 7.12 | LDLr independent lipid | 54 | – | – | – | – | – | – | – | – | – | – | – | AUC (0.1 mpk) (hEPO mRNA expression [4]; hEPO expression in S.D. rats, 0.1 mpk): 2.12E+06; AUC/MC3 0.1 mpk (hEPO mRNA expression [4]; hEPO expression in S.D. rats, 0.1 mpk, relative to MC3): 1.3; AUC (1 mpk) (hEPO mRNA expression [4]; hEPO expression in S.D. rats, 1 mpk): 6.79E+07; AUC/MC3 1 mpk (hEPO mRNA expression [4]; hEPO expression in S.D. rats, 1 mpk, relative to MC3): 0.58; concentration at 48 h ([5]; liver, 48 hours after administration, read-out: Lipid in liver): 22000 ng/g; concentration at 48 h ([5]; spleen, 48 hours after administration, read-out: Lipid in spleen): 5340 ng/g; % remaining dose in liver ([5]; liver, 48 hours after administration): 38%; % dose remainng Rat liver (48 h) ([5]; rat liver, 48 h): 37.82%; % remaining dose in spleen ([5]; spleen, 48 hours after administration): 0.61%; expression of hEPO compared to MC3 (hEPO mRNA expression [6]): 3 fold; GFP protein expression in liver cell types (in words) [7]: less protein expression in Kupffer cells; % change in Luc expression in livers of ApoE knockout vs. wild-type mice (Luc expression; FIG. 17 Graph A, liver): 91.9%; % change in expression in spleens of ApoE knockout vs. wild-type mice (Luc expression; FIG. 17 Graph B, spleen): 4.34%
2 | CCCCCCCCCCCCN(CCCCCCCCCCCC)CCN(CCCCCCCCCCCC)CC(=O)N1CCN(C(=O)CN(CCCCCCCCCCCC)CCCCCCCCCCCC)CC1 [Compound 11, 2-(Didodecylamino)-1-(4-(N-(2-(didodecylamino)ethyl)-N-dodecylglycyl)piperazin-1-yl)ethan-1-one] | 0.099 | 87.4 | 99.5 | 6.54 | LDLr independent lipid | – | 1.23E+10 | 3.81E+09 | 8.20E+08 | 1.47E+06 | 1.67E+09 | 2.21E+06 | 7.21E+06 | 250 | 3305 | comparable to MC3 | improved tolerability as compared to KL22 | LDL-c levels in LDLR knockout mice (in words) (LDL-c; FIG. 9 Graph B, mRNA encoding the LDL receptor, 0.5 and 1 mpk): found to drop
3 | CCCCCCCCCCCCN(CCCCCCCCCCCC)CCN(CCCCCCCCCCCC)CCN1CCN(CCN(CCCCCCCCC)CCCCCCCCC)CC1 [Compound 23, N^1-(2-(4-(2-(Dinonylamino)ethyl)piperazin-1-yl)ethyl)-N^1,N^2,N^2-tridodecylethane-1,2-diamine] | 0.058 | 85.4 | 82.9 | 6.07 | – | – | 2.33E+10 | 3.40E+10 | 1.06E+09 | 3.17E+06 | 4.94E+09 | 1.51E+07 | 2.95E+07 | 259 | 3702 | – | toxic | PDI [1, 14]: 0.16; Size (nm) [1, 14]: 98.5 nm; PDI [1, 15]: 0.11; Size (nm) [1, 15]: 95.2 nm; EE (%) [2, 14]: 77.19%; EE (%) [2, 15]: 51.46%; pKa [3, 14]: 6.070; pKa [3, 15]: 6.164; Conc. ([11]; 40:20:38.5:1.5 Lipid:DOPE:Chol:PEG-DMG): 438.20 µg/mL; Conc. ([11]; 50:10:38.5:1.5 Lipid:DSPC:Chol:PEG-DMG): 454.58 µg/mL; Luc expression in mice compared with MC3 (in words) ([8]; Table 7a): several fold higher; total flux after 3 hours, rank within the named table (in words) ([8]; mice, i.v., 0.5 mg/kg, 3 hours): highest flux after 3 hours
4 | CCCCCCCCCCCCN(CCCCCCCCCCCC)CCN(CCCCCCCCCCCC)CCN1CCN(CCN(CCCCCCCCCCCC)CCCCCCCCCCCC)CC1 [KL22, N1-[2-(didodecylamino)ethyl]-N1,N4,N4-tridodecyl-1,4-piperazinediethanamine, reference compound] | – | – | – | – | – | 51 | – | – | – | – | – | – | – | – | – | do not express hEPO in rats | toxic | –
